For data set [1], the system named is EBV lytic cycle (expression of EBV Rta). The arrangement: method as in PMID 21490247. To be noted: 0.25 µM; cited from earlier work.
Data set [2] can be described thus: MTT cytotoxicity on the HIV host cells. It counts as cell-based. To be noted: human, U373-CD4-CCR5 cells, MTT, 48 h, n=2; tested up to 100 µM (compound 9 up to 500 µM); read-out: Cytotoxic IC50 ± SEM. Here is the method: (§1) The U373-CD4-CCR5 cell line was obtained from the AIDS Research and Reagent Program, NIAID. Cells were cultured according to the protocol of the provider with 10% heat-inactivated fetal bovine serum (Lonza, Maastricht, The Netherlands) supplemented with 2 mM L-glutamine, 100 units/mL of penicillin, and 100 µg/mL streptomycin (Invitrogen, Merelbeke, Belgium). Pseudotyped viral particules bearing the ADA HIV Env were produced, as described previously.
(§2) Antiviral activity was assessed while using a Pseudotype Virus Assay, allowing for one cycle of viral replication. The U373-CD4-CCR5 cells were infected by pseudotyped virus pNL4.3ΔenvLuc-ADA 8 using spinoculation at 1200 g during 2 h in the presence of compounds and cultured for two consecutive days in the presence of the compounds. After 48 h, luciferase activity expressed as Relative Light Units was measured (Luciferase System kit, Promega, The Netherlands). Drug cytotoxicity was evaluated while using MTT (3-(4,5-dimethylthiazol-2-yl)-2,5-diphenyltetrazolium bromide, Sigma, Belgium) 48 h after incubation with the compounds by measuring A540 and A690 using a POLARstar Omega Plate Reader (BMG Lab Technologies, Belgium) after 48 h of incubation with the compounds. The value of OD540–OD690 was calculated.

Data set [3] is described as follows: MTT cytotoxicity assay on P3HR1 cells. It counts as cell-based. To be noted: human, 24 h. The protocol:
(§3) EBV-positive BL cell line P3HR1 cells were cultured in RPMI 1640 medium. Culture media were supplemented with 10% fetal calf serum. P3HR1 cells were treated with 3 mM sodium butyrate and 30 nM 12-O-tetradecanoylphobol-13-actetae (TPA) to induce the EBV lytic cycle.
(§4) P3HR1 cells (5 × 10^4) were seeded in wells of a 96-well plate and then cultured for 24 h in 100 µL of RPMI 1640 medium containing protoapigenone or its analogs. Subsequently, 1% Triton X-100 was added as a […] control. Cytotoxicity was determined by Cell Proliferation Kit I (Roche, Basel, Switzerland). An aliquot of 10 µL of the MTT labeling reagent was added to each well and the plate was incubated for 4 h at 37°C. Afterwards, 100 µL solubilization solution was added to each well to dissolve insoluble formazan and was incubated overnight. Optical density was measured at 595 nm and 650 nm.
In general terms: Formazan colour is commonly taken as a measure of viable cells.

The test system of data set [4] is EBV lytic cycle (expression of EBV Rta). The experiment in a line: Inhibition of EBV lytic cycle: immunoblot of Rta expression in P3HR1 cells after lytic induction. In kind it is cell-based, Epstein–Barr Virus. The settings on record: for IC50: human gammaherpesvirus 4, P3HR-1, 24 h after lytic induction with SB and TPA; for IC50 / concentration causing a marked reduction in the Rta levels: immunoblot; for selectivity ratio at 24 h: human, cytotoxic IC50 (P3HR1) / anti-EBV Rta IC50, read-out: Selectivity of the anti-EBV vs. cytotoxic effect (ratio of the corresponding IC50 values); for inhibition of EBV lytic cycle, first screening (in words): 0.25 µM, sodium butyrate + TPA, 24 h; for concentration causing a marked reduction in the Rta levels: 24 h after lytic induction. The protocol:
Compounds 2 and 6–28 were tested for their activity on the EBV lytic cycle. To assess this, the P3HR1 cells were treated with sodium butyrate and TPA for 24 h. As expected, lytic protein Rta was expressed after lytic induction. As a first screening, the cells were treated with protoapigenone (2), used as a positive control, or compounds 6–28 at the induction of lytic cycle for 24 h.
as §3
P3HR1 cells were lysed in mRIPA buffer (50 mM Tris-HCl, pH 7.8, 150 mM NaCl, 5 mM EDTA, 0.5% Triton X-100, 0.5% NP-40). Approximately 5% of the lysate was loaded to a gel and then separated by electrophoresis in 10% SDS-PAGE. The proteins in the gel were electroblotted onto a polyvinylidene difluoride (PVDF) blotting membrane while using a Hoefer transfer system. Rta was detected while using mouse anti-Rta monoclonal antibody (Argene, Verniolle, France). α-Tubulin was detected using mouse anti-α-tubulin monoclonal antibody (Abcam, Cambridge, UK). Primary antibodies were detected using horseradish peroxidase-conjugated secondary antibodies (Cell Signaling Technology, Danvers, MA, USA) and then visualized using SuperSignal West Pico Chemiluminescent substrate (Thermo Fisher Scientific, Waltham, MA, USA).
Background: Immunoblotting shows a protein as a band on a membrane.

A further data set deals with P3HR1 cells. Description: MTT cytotoxicity assay on P3HR1 cells. It counts as cell-based. The protocol: as §3, §4
For another data set, the system named is U373-CD4-CCR5 cells. The experiment in a line: MTT cytotoxicity on the HIV host cells. The settings on record: for IC50: U373-CD4-CCR5 cells, MTT, 48 h, n=2, tested up to 100 µM (compound 9 up to 500 µM), read-out: Cytotoxic IC50 ± SEM. In kind it is cell-based. Here is the method: as §1, §2
The subject of another data set is HIV-1. Description: HIV-1 pseudotype virus assay (one cycle of viral replication, luciferase readout). In kind it is cell-based. Here is the method: Compounds 2, 6–14, and 21–28 were tested against HIV-1 while using a pseudotype virus assay allowing only one cycle of viral replication and being more sensitive for compounds targeting the early steps of HIV replication, such as reverse transcription and integration. […] While this represents a rather weak activity, it might still be of interest, since this compound was not cytotoxic on the host cells at as high as 500 µM concentration.
The U373-CD4-CCR5 cell line was obtained from the AIDS Research and Reagent Program, NIAID. Cells were cultured according to the protocol of the provider with 10% heat-inactivated fetal bovine serum (Lonza, Maastricht, The Netherlands) supplemented with 2 mM L-glutamine, 100 units/mL of penicillin, and 100 µg/mL streptomycin (Invitrogen, Merelbeke, Belgium). […]
Antiviral activity was assessed while using a Pseudotype Virus Assay, allowing for one cycle of viral replication. […] After 48 h, luciferase activity expressed as Relative Light Units was measured (Luciferase System kit, Promega, The Netherlands). Drug cytotoxicity was evaluated while using MTT (3-(4,5-dimethylthiazol-2-yl)-2,5-diphenyltetrazolium bromide, Sigma, Belgium) 48 h after incubation with the compounds by measuring A540 and A690 using a POLARstar Omega Plate Reader (BMG Lab Technologies, Belgium) after 48 h of incubation with the compounds. The value of OD540–OD690 was calculated.

The structures appear in SMILES notation. Entries after “also recorded” stand apart in the source; their conditions may differ.

For orientation: IC50 means the concentration that inhibits the measured activity by half. As to `O=C1C=CC(O)(c2cc(=O)c3c(O)cc(O)cc3o2)C=C1` [Compound 2, protoapigenone], the “activity against EBV lytic cycle (in words)” value in data set [1] was “strong activity”. Further, the IC50 at 48 h in data set [2] was 0.22 ± 0.003 µM. Inhibition in data set [3] was half-maximal at 3.86 µM (IC50 at 24 h). In data set [4], the IC50 came to 0.127 µM and the selectivity ratio at 24 h was 30.1.

As for `CC(C)OC1(c2cc(=O)c3c(O)cc(O)cc3o2)C=CC(=O)C=C1` [Compound 6, protoapigenone 1′-O-isopropyl ether], in data set [2], the IC50 at 48 h was found to be 2.09 ± 0.13 µM. Moreover, the “cytotoxic activity compared to protoapigenone (in words)” value in the data set with P3HR1 cells is “much weaker; also recorded: an order of magnitude lower cytotoxic effect”. In data set [3], this molecule showed an IC50 at 24 h of 34.1 µM. Further, in data set [4], the “inhibition of EBV lytic cycle, first screening (in words)” value (from here on “inhibition of EBV lytic cycle”) is given as “can inhibit EBV lytic cycle”; the “concentration causing a marked reduction in the Rta levels” value (from here on “concentration causing a marked reduction”) is 0.50 µM; the midpoint of inhibition, the IC50, lay at 0.467 µM; the selectivity ratio at 24 h is 73.

As to `CCCCOC1(c2cc(=O)c3c(O)cc(O)cc3o2)C=CC(=O)C=C1` [Compound 7], the IC50 at 48 h in data set [2] was 0.25 ± 0.002 µM. Besides, the “cytotoxic activity compared to protoapigenone (in words)” value in the data set on P3HR1 cells is “similarly active as protoapigenone”. The molecule also came in with an IC50 at 24 h in data set [3] of 2.04 µM. In addition, in data set [4], the “inhibition of EBV lytic cycle” value is “can inhibit EBV lytic cycle”; the “concentration causing a marked reduction” value is 0.25 µM; half-maximal inhibition (IC50) required 0.208 µM; the selectivity ratio at 24 h is 9.8.

For `C#CCOC1(c2cc(=O)c3c(O)cc(O)cc3o2)C=CC(=O)C=C1` [Compound 8, protoapigenone 1′-O-propargyl ether], the IC50 at 48 h in data set [2] amounted to 0.67 ± 0.03 µM. Besides, the “cytotoxic activity compared to protoapigenone (in words)” value in the data set with P3HR1 cells is listed as “similarly active as protoapigenone”. The IC50 at 24 h in data set [3] was found to be 4.93 µM. For the same molecule, in data set [4], the “inhibition of EBV lytic cycle” value is “can inhibit EBV lytic cycle”; the “concentration causing a marked reduction” value is recorded as 0.50 µM; the midpoint of inhibition, the IC50, lay at 0.285 µM; the selectivity ratio at 24 h turned out to be 17.3.

Broadly, the inhibition is the drop in the measured response relative to a control, in per cent. In the case of `O=C1CCC(O)(c2cc(=O)c3c(O)cc(O)cc3o2)CC1` [Compound 9, Tetrahydroprotoapigenone], in the data set on U373-CD4-CCR5 cells (at as high as 500 µM), the “cytotoxicity on the host cells (in words)” value is reported as “not cytotoxic”. The concentration for half-maximal inhibition (IC50) at 48 h in data set [2] is over 500 µM. In addition, the inhibition at 100 µM with HIV-1 (Human immunodeficiency virus 1, 48 h, read-out: inhibition of viral infection) is about 50%. Moreover, the “antiretroviral activity against HIV-1 (in words)” value in the data set with HIV-1 (pseudotype virus assay, 100 µM where stated) is “inhibits HIV-1 infection; also recorded: weak antiretroviral activity”.

Take `COC1(c2cc(=O)c3c(O)cc(O)cc3o2)CCC(=O)CC1` [Compound 10]: in data set [2], the IC50 at 48 h was over 100 µM.

In the case of `CCOC1(c2cc(=O)c3c(O)cc(O)cc3o2)CCC(=O)CC1` [Compound 11], the concentration for half-maximal inhibition (IC50) at 48 h in data set [2] is over 100 µM.

For `CCCOC1(c2cc(=O)c3c(O)cc(O)cc3o2)CCC(=O)CC1` [Compound 12], the IC50 at 48 h in data set [2] was over 100 µM.

Consider `CC(C)OC1(c2cc(=O)c3c(O)cc(O)cc3o2)CCC(=O)CC1` [Compound 13], for which the IC50 at 48 h in data set [2] is over 100 µM.

In the case of `CCCCOC1(c2cc(=O)c3c(O)cc(O)cc3o2)CCC(=O)CC1` [Compound 14], the half-inhibitory concentration (IC50) at 48 h in data set [2] was about 6.37 µM.

On to `COC1CC(=NO)C=CC1(OC(C)C)c1cc(=O)c2c(O)cc(O)cc2o1` (stereo not shown) [Compound 21], for which the 50% inhibitory concentration (IC50) at 48 h in data set [2] is over 100 µM.

In the case of `CCCCOC1(c2cc(=O)c3c(O)cc(O)cc3o2)C=CC(=NO)CC1OC` (stereo not shown) [Compound 22], in data set [2], the IC50 at 48 h is over 100 µM.

In the case of `C#CCOC1(c2cc(=O)c3c(O)cc(O)cc3o2)C=CC(=NO)CC1OC` (stereo not shown) [Compound 23], the IC50 at 48 h in data set [2] is about 89.5 µM.

With `COC1CC(=NO)C=CC1(OC(C)C)c1cc(=O)c2c(O)cc(O)cc2o1` (stereo not shown) [Compound 24], the IC50 in the data set with U373-CD4-CCR5 cells was over 100 µM.

On to `CCCCOC1(c2cc(=O)c3c(O)cc(O)cc3o2)C=CC(=NO)CC1OC` (stereo not shown) [Compound 25], for which the IC50 in the data set on U373-CD4-CCR5 cells came out at 53.88 ± 0.35 µM.

`C#CCOC1(c2cc(=O)c3c(O)cc(O)cc3o2)C=CC(=NO)CC1OC` (stereo not shown) [Compound 26]: the IC50 in the data set with U373-CD4-CCR5 cells was over 100 µM.

Turning to `O=c1cc(C2(O)CCC(=NO)CC2)oc2cc(O)cc(O)c12` (stereo not shown) [Compound 27], the IC50 at 48 h in data set [2] is over 100 µM.

Turning to `CCCCOC1(c2cc(=O)c3c(O)cc(O)cc3o2)CCC(=NO)CC1` (stereo not shown) [Compound 28], the IC50 at 48 h in data set [2] stood at 27 ± 8.4 µM.
